The text below walks through data of BindingDB's records for doi:10.7270/Q23B5XSC (Nmmlsc, 2012).

The target in the experiment is C-C chemokine receptor type 5 (Homo sapiens, UniProt P51681).
Chain of C-C chemokine receptor type 5 (P51681 whole entry): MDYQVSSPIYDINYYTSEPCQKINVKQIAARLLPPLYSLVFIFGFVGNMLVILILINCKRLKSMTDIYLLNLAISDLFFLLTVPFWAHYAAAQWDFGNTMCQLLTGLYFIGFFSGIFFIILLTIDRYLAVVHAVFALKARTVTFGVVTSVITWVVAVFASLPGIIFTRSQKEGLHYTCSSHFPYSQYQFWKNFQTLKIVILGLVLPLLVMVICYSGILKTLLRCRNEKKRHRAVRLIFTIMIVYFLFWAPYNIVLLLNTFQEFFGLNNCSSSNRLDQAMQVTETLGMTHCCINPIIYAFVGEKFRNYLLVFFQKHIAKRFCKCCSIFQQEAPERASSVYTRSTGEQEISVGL
The term EC50 denotes the concentration giving half of the maximal effect. A high value points to weaker potency. Take `CCOC(=O)c1ccc(NC(=O)Cn2nnc(-c3ccccc3)n2)cc1` [SMR000021419]: the EC50 amounted to 123 nM.

For the molecule `CCOC(=O)c1ccc(NC(=O)COc2ccc(S(=O)(=O)N3CCCC3)cc2)cc1` [SMR000124597], the EC50 came out at 188 nM. Compared with the last molecule, the EC50 is about 1.5-fold higher.

In the case of `CC(=O)Nc1ccc(S(=O)(=O)NCCc2csc(-c3cccnc3)n2)cc1`, the EC50 was found to be 19.6 nM.

`CN(CC(=O)N1CCN(c2ccccn2)CC1)S(=O)(=O)c1ccc(Cl)cc1` displayed an EC50 of 7.46 nM.
